The results in this text go back to patent publication US20030186869A1, “Polymer compositions comprising antifibrotic agents, and methods of treatment, pharmaceutical compositions, and methods of preparation therefor” (priority 1990, published 2003).

Series [1] relates to Smooth muscle cells. The series can be described thus: Smooth muscle cell proliferation, cells counted daily. The class given is cell-based. As to conditions: six day period, compared to free cHyp and tHyp. The text has this:
As can be noted with respect to FIGS. 6-9, the antifibrotic agents can be conjugated with PEG or another polymer and used to reduce cellular proliferation in the presence of collagen metabolism. In FIG. 6, the effect of free cHyp, polymeric cHyp and free trans-hydroxyproline were compared over a six day period. Smooth muscle cells were allowed to proliferate in the presence of free cHyp, polymeric cHyp and trans-hydroxyproline. The polymeric cHyp was produced as described above and contained ester linkages. On each day, the cells were trypsinized and counted with a hemocytometer. […] This is further supported by the data illustrated in FIG. 9, generated with fibroblast cells. […] See, e.g., FIG. 7, which presents a comparison of activity between the ester linked polymer and the amide linked polymer in FIG. 8.

For series [2], the system named is rats exposed to hypoxia (10% O2). Put plainly: cHyp (free or in liposomes) in rats developing hypoxic pulmonary hypertension. It counts as in vivo, rat. The note with it: for Hct / RVP / RV/(LV + S) / Protein: Hypoxia, day 3; for Protein: pulmonary artery. The source says: Six week old male Sprague Dawley rats (Crl:CD[SD]BR) weighing 185-205 g and 8 week old female Swiss mice (Crl:CP-1[ICR]BR) weighing 30-32 g (Charles River Breading Laboratories, Wilmington, Mass.) were maintained in a holding area one week prior to study and were fed food and water ad libitum. Rats were randomly allocated to hypoxia or air groups; mice breathed air. Animals were kept in a 12-hour light-dark cycle.
Four rats were placed in a polycarbonate chamber measuring 51×41×22 cm, and humidified gas (10% O2, 90% N2 flowed into the chamber at a rate of 400 ml/min. Gas samples were analyzed electrometrically (model MB53-MK2, Radiometer, Copenhagen, Denmark); PO2 ranged from 74-80 mmHg and PCO2 from 3-5 mmHg. Air-breathing rats were kept in cages in the same room and were pair-fed to hypoxic animals by weighing the food consumed by hypoxic animals and feeding the same amount of food to air-breathing animals to ensure similar final body weights. The chambers were opened once daily for 10 min. to clean, weigh and feed the animals.
A catheter was placed in the right ventricle of anesthetized rats (50 mg/kg pentobarbital intraperitoneally), and mean right ventricular pressure was measured using a pressure transducer (model P23Db, Statham, Instruments, Oxnard, Calif.) and recorded (model SP-2006, Statham Instruments). Pressure was measured after the animal had breathed air for 20 min. to eliminate the tonic response to hypoxia. After sacrifice by abdominal aorta transection, hematocrit and ratio of ventricular weights were measured, and the position of the catheter was confirmed at autopsy.
Main pulmonary artery (9 mm in length) was excised and analyzed for total protein and hydroxyproline contents as previously described. Tissue was hydrolyzed in 6N HCl at 118° C. for 48 hrs., diluted 1:10 in water, and a 0.1 ml aliquot was assayed for total protein by the ninhydrin method using leucine as standard and for hydroxyproline by a calorimetric method. Results of triplicate measurements were expressed as content per vessel.
Cis-4-hydroxy-L-proline dissolved in saline (free cHyp) or saline alone were injected subcutaneously (0.5 ml) or intravenously. Intravenous injections were performed in anesthetized animals (25 mg/kg thiopental, intraperitoneally). In rats, liposomes containing cHyp or empty liposomes were injected intravenously (18 μmol phospholipid in […]) via the dorsal vein of the penis over 5 sec using a 30 gauge needle. In mice, liposomes (18 μmol phospholipid in 0.5 ml) were injected into the tail vein.
Four modes of delivery of cHyp were used in rats. Free cHyp (200 or 100 mg/kg) was injected subcutaneously twice daily during exposure to hypoxia. A single dose of free cHyp (200 mg/kg) was given intravenously prior to exposure to hypoxia. Single doses of cHyp entrapped in liposomes (200 or 100 mg/kg) were injected intravenously prior to exposure to hypoxia. Multiple doses of cHyp in liposomes (200 mg/kg) were injected intravenously prior to hypoxia and every 5 days during exposure to hypoxia. Single doses of cHyp entrapped in liposomes after reticuloendothelial blockage were produced by intravenous injection of a single dose of empty liposomes followed 30 minutes later by a single intravenous dose of cHyp entrapped in liposomes (100 or 50 mg/kg) prior to exposure to hypoxia. The purpose was to enhance the localization of liposomes containing cHyp to the lungs by prior treatment with empty liposomes as temporary reticuloendothelial blocking agents.
In each animal, we assessed the effect of injection of cHyp on five parameters of exposure to hypoxia: mean right ventricular pressure (RVP) measured after the animal had been removed from the hypoxic environment, ratio of ventricular weights (RV/[LV+S]), hematocrit, and the contents of hydroxyproline and protein in the pulmonary artery. For each experimental group, comparisons were made to a group exposed to hypoxia and injected with a control substance and to a group exposed to air. […]

Series [3] concerns RFL-6 cells. The series can be described thus: IC50 experiment, cytotoxicity / growth inhibition of RFL-6 rat fibroblast cells. It counts as cell-based. As to conditions: Rattus norvegicus, RFL-6; free amino acid; mean ± SD (n); read-out: IC50, Free AA. As to the method: In this test two different synthesis batches of cis-hydroxyproline (CHOP) linked to PEG were tested, along with free CHOP. […] The differences between the two batches of CHOP-PEG are not significant.

Series [4] has as its system air-breathing rats. The series can be described thus: cHyp in air-breathing rats, parameters of exposure to hypoxia. It counts as in vivo, rat. The note with it: for Hct / RV/(LV + S) / RVP / Protein: Air, day 3; for Protein: pulmonary artery. The source says: In each animal, we assessed the effect of injection of cHyp on five parameters of exposure to hypoxia: mean right ventricular pressure (RVP) measured after the animal had been removed from the hypoxic environment, ratio of ventricular weights (RV/[LV+S]), hematocrit, and the contents of hydroxyproline and protein in the pulmonary artery. For each experimental group, comparisons were made to a group exposed to hypoxia and injected with a control substance and to a group exposed to air. For free cHyp, the control substance was saline; for cHyp entrapped in liposomes, the control substance was empty liposomes. Groups were age-matched; the air group was weight-matched to the hypoxic group injected with the control substance. Average results of each parameter were compared.
The sixth protocol studied whether cHyp injected in air breathing rats affected any of the parameters of exposure to hypoxia. Air groups were given free cHyp 200 or 100 mg/kg subcutaneously twice daily for 3 days (Groups 13 and 14) and were compared to saline injected animals. A group was injected with 200 mg/kg of cHyp in liposomes every 5 days during a 21-day exposure to air (Group 15), and results were compared to a group injected with empty liposomes every 5 days during a 21-day exposure to air.

The nature of series [5]: Hydrolytic stability of dual-labeled conjugate in pH buffers (GPC, scintillation counting). The class given is physicochemical. As to conditions: six day period. The method, then:
Buffers at various pH levels were prepared according to the method described in Davies, The Analyst, 1959, 4:248-251, with final ionic strengths of approximately 0.15 mol./L. Incubation samples were prepared by dissolving the dual-labeled conjugate in the appropriate medium to obtain a 50 mg/mL concentration and immediately syringe filtering through 0.45 μm nylon filters. Aliquots (25-30 μL) at specified time points were removed for GPC analysis-fractionation. Release rates were determined by monitoring cleavage of the radiolabeled [^3H]-cHyp from the radiolabeled [^14C] polymeric backbone. Separation of the relatively high molecular weight backbone from the low molecular weight drug was readily achieved via gel permeation chromatography, which is a size separation technique, followed by scintillation counting of the collected fractions. This necessitated using radiolabeled-conjugate concentrations of 50 mg/mL, i.e., 1 mg of conjugate injected per run, resulting in appropriate molecular weight analysis and specific activity determinations for the collected fractions. […]
The polymeric conjugate consists of two distinctly different parts: (a) the polymeric backbone [poly(PEG-Lys)]; and (b) the pendent chain which consists of the drug molecule and its linking bond (cHyp). […] The hydrolytic stability of the polymeric conjugate was monitored over a six day period. The stability of the bonds present in the polymeric conjugate (ether, amide and urethane) was evaluated by incubation of the dual-labeled polymeric conjugate at the specified pH. Aliquot removal at specified time intervals, followed by GPC analysis with fractionation, permitted the quantitative monitoring of both carrier stability (molecular weight profile) and drug release (determination of [^3H]/[^14C] ratio by scintillation counting), as is shown in FIG. 12. In the pH range from 0 to 12, no change in either molecular weight, polydispersity or the [^3H] to [^14C] ratio could be detected throughout the test period.

A short description of series [6]: Serum release study in fetal calf serum. As to conditions: six day incubation in FCS at 37° C. The class given is in vitro ADME, bovine. The method, then:
Buffers at various pH levels were prepared according to the method described in Davies, The Analyst, 1959, 4:248-251, with final ionic strengths of approximately 0.15 mol./L. Incubation samples were prepared by dissolving the dual-labeled conjugate in the appropriate medium to obtain a 50 mg/mL concentration and immediately syringe filtering through 0.45 μm nylon filters. Aliquots (25-30 μL) at specified time points were removed for GPC analysis-fractionation. Release rates were determined by monitoring cleavage of the radiolabeled [^3H]-cHyp from the radiolabeled [^14C] polymeric backbone. Separation of the relatively high molecular weight backbone from the low molecular weight drug was readily achieved via gel permeation chromatography, which is a size separation technique, followed by scintillation counting of the collected fractions. This necessitated using radiolabeled-conjugate concentrations of 50 mg/mL, i.e., 1 mg of conjugate injected per run, resulting in appropriate molecular weight analysis and specific activity determinations for the collected fractions. The serum release studies were conducted in 100% heat inactivated fetal calf serum (ΔFCS) at 37° C. at a concentration of 50 mg/mL of conjugate to ΔFCS, over a six day period.

[7] abbreviates: 100 mg/kg subcutaneously for 3 days.

For “Poly(PEG-Lys-cis-Hyp) Copolymer [polymeric cHyp]”, the Cellular proliferation entry in series [1] is on record as “significantly reduced”.

Turning to `O=C(O)[C@@H]1C[C@H](O)CN1` (stereo in doubt) [cHyp, cis-4-hydroxy-L-proline], in series [2] (setting [7]), the hematocrit result is listed as “partial decrease” and the “increased RVP, RV/(LV+S) or hydroxyproline or protein contents” value is recorded as “did not prevent”. Moreover, in series [2] (200 mg/kg subcutaneously twice daily for 3 days), the pulmonary hypertension result is listed as “partially prevented”. Also, in series [2] (100 mg/kg sq bid × 3 days), the Hct worked out at 51 ± 1 %, the RVP is 14 ± 1 mmHg and the Protein is on record as 2.3 ± 0.3 mg/vessel. Besides, in series [2] (200 mg/kg iv × 1 injection), the Hct is listed as 55 ± 1 %, the “RV/(LV + S)” value was 0.32 ± 0.01 %, the RVP is given as 14 ± 1 mmHg and the Protein was 2.3 ± 0.3 mg/vessel. In addition, in series [2] (200 mg/kg sq bid × 3 days), the Hct came to 51 ± 1 %, the “RV/(LV + S)” value is given as 0.25 ± 0.01 %, the RVP is on record as 10 ± 1 mmHg and the Protein amounted to 1.4 ± 0.1 mg/vessel. Further, the “minimal total dose required to prevent hypoxic pulmonary hypertension” value in series [2] (at 5 days, subcutaneous (200 mg/kg twice daily)) stood at 2000 mg/kg. Further, the “effect on any parameter” value in series [2] (injected intravenously prior to hypoxic exposure) is “no effect”. The IC50 in series [3] is 8.8 ± 5.1 mM. Further, in series [4] (100 mg/kg sq bid × 3 days), the Hct came to 47 ± 1%, the “RV/(LV + S)” value is 0.25 ± 0.01%, the RVP worked out at 9 ± 1 mmHg and the Protein worked out at 1.2 ± 0.1 mg/vessel. In series [4] (200 mg/kg sq bid × 3 days), the Hct stood at 46 ± 1%, the “RV/(LV + S)” value is on record as 0.24 ± 0.01%, the RVP is 9 ± 1 mmHg and the Protein worked out at 1.2 ± 0.1 mg/vessel. For the same molecule, in series [4] (air, 200 mg/kg or 100 mg/kg twice daily subcutaneously for 3 days), the “effect on any of the measured parameters” value is recorded as “no effect”.

“Poly(PEG-Lys-cis-Hyp) Copolymer [amide linked polymer]”: in series [1], the Cellular proliferation entry was “further reduced”.

As to “poly(PEG-[^14C]Lys-[^3H]cHyp) [dual-labeled polymeric conjugate]”, in series [5] (pH 14, 25° C.), the “change in [3H]/[14C] ratios (amide stability)” value is “relatively no change” and the polymer backbone stability result is given as “Massive backbone degradation”. For the same molecule, the “change in molecular weight, polydispersity or [3H] to [14C] ratio” value in series [5] (pH range from 0 to 12, 25° C.) was “no change”. In series [6], the “cleavage of [3H]cHyp from the carrier” value is on record as “did not occur to any appreciable extent” and the polymer backbone stability entry is given as “completely maintained”.
